According to patent EP0034471A1, “Piperidinoquinazolines and a process for the preparation thereof” (ORION-YHTYMÄ OY, priority 1980, dated 1981):
Structures can show the parent of a compound that is named as a salt.

Legend:
male Wistar rats = assay: Blood pressure lowering after intravenous administration in urethane-anaesthetised rats (mean arterial pressure, femoral artery); format: in vivo; conditions: maximal decrease of the blood pressure
Method: The effect of the compounds when administered intravenously was studied with male Wistar rats, 240-290 g,which were anaesthetised with urethane (1.5 g/kg intraperitoneally). A heating pad which is controlled by a thermostate connected to the colonic thermistor probe was placed underneath the rats to keep the body temperature at' 38°C. The trachea was cannulated with a polyethylene tube and the rats were allowed to breathe spontaneously. A femoral vein was cannulated for intravenous injections of drugs. […] The pressure . signals were amplified with a pressure conditioner (HP […]). The mean arterial pressure was recorded on paper with a . chart recorder. […] A dose of 0.1 μmol/kg was injected intravenously and the maximal decrease of the blood pressure (mmHg) was measured.

[1] = tested on: Spontaneously hypertensive rats of the Okamoto-Aoki strain; assay: Blood pressure lowering after oral administration in conscious spontaneously hypertensive rats (tail cuff, systolic pressure); format: in vivo; conditions: for The decrease of the blood pressure (mmHg) induced by the dose of 0.5 µmol/rat p.o. 1h: 1 hour after administration; for The decrease of the blood pressure (mmHg) induced by the dose of 0.5 µmol/rat p.o. 2h: 2 hours after administration; for The decrease of the blood pressure (mmHg) induced by the dose of 0.5 µmol/rat p.o. 5h: 5 hours after administration

| SMILES | The decrease of the blood pressure (mmHg) induced by the dose of 0.1 µmol/kg i.v. (male Wistar rats) | The decrease of the blood pressure (mmHg) induced by the dose of 0.5 µmol/rat p.o. 1h [1] | The decrease of the blood pressure (mmHg) induced by the dose of 0.5 µmol/rat p.o. 2h [1] | The decrease of the blood pressure (mmHg) induced by the dose of 0.5 µmol/rat p.o. 5h [1] |
| --- | --- | --- | --- | --- |
| COc1cc2nc(N3CCC(C(=O)N4CCCCCC4)CC3)nc(N)c2cc1OC [1-azacycloheptyl, 2-(4-(azacyclohept-1-yl-carbonyl)piperi-dino)-4-amino-6,7-dimethoxyquinazoline hydrochloride] | 47 mmHg | 23 mmHg | 27 mmHg | 25 mmHg |
| COc1cc2nc(N3CCC(C(=O)N4CCCCCCC4)CC3)nc(N)c2cc1OC [1-azacyclooctyl, 2-(4-(azacyclooct-1-yl-carbonyl)piperidino-4-amino-6,7-dimethoxyquinazoline hydrochloride] | 23 mmHg | 18 mmHg | 23 mmHg | 29 mmHg |
| COc1cc2nc(N3CCC(C(=O)N4CCCCC4C)CC3)nc(N)c2cc1OC.Cl (stereo not shown) [2-methylpiperidino, 2-(4-(2-methylpiperidino)carbonylpiperidino)-4-amino-6,7-dimethoxyquinazoline hydrochloride] | 31 mmHg | 15 mmHg | 25 mmHg | 28 mmHg |
| CCN(CC)C(=O)C1CCN(c2nc(N)c3cc(OC)c(OC)cc3n2)CC1 [A(R = diethylamino), 2-(4-diethylaminocarbonylpiperidino) 4- .amino-6,7-dimethoxyquinazoline, reference compound] | 37 mmHg | 24 mmHg | 16 mmHg | 10 mmHg |
| COc1cc2nc(N3CCC(C(=O)N4CCOCC4)CC3)nc(N)c2cc1OC [B(R = morpholino), 2-(4-morpholinocarbonylpiperidino)-4-amino-6,7-dimethoxyquinazoline, reference compound] | 30 mmHg | 7 mmHg | 5 mmHg | -2 mmHg |
| COc1cc2nc(N3CCC(C(N)=O)CC3)nc(N)c2cc1OC.Cl [amino, 2-(4-carbamoylpiperidino)-4-amino-6,7-dimethoxyquinazoline hydrochloride] | 27 mmHg | 20 mmHg | 22 mmHg | 20 mmHg |
| COc1cc2nc(N3CCC(C(=O)OCC(C)(C)C)CC3)nc(N)c2cc1OC.Cl [neopentyloxy, 2-(4-neopentyloxycarbonylpiperidino)-4-amino-6,7-dimethoxyquinazoline hydrochloride] | 44 mmHg | 22 mmHg | 21 mmHg | 21 mmHg |
| COc1cc2nc(N3CCC(C(=O)N4CCCCC4)CC3)nc(N)c2cc1OC [piperidino, 2-(4-piperidinocarbonylpiperidino)-4-amino-6,7-dimethoxyquinazoline] | 32 mmHg | 25 mmHg | 22 mmHg | 17 mmHg |
| COc1cc2nc(N3CCN(C(=O)c4ccco4)CC3)nc(N)c2cc1OC [prazosin, 2-(4-(2-furoyl)-piperazin-l-yl)-4-amino-6,7-dimethoxyquinazoline, reference compound] | 36 mmHg | 26 mmHg | 31 mmHg | 24 mmHg |
| COc1cc2nc(N3CCC(C(=O)NC(C)(C)C)CC3)nc(N)c2cc1OC.Cl [t-butylamino, 2-(4-tert-butylcarbamoylpiperidino)-4-amino-6,7-dimethoxyquinazoline hydrochloride] | 28 mmHg | 15 mmHg | 25 mmHg | 28 mmHg |
